This is an account of results in US20070292901A1, “Methods and kits for evaluating and measuring the oncological status of tissue samples in three-dimensional physiological matrices” (priority 2006, published 2007).

For the assay, the system named is Patient Sample GS-640, kidney tissue, renal cell carcinoma. Put plainly: Three-dimensional gel matrix screening of chemotherapeutics on patient tumor tissue fragments (cell migration/invasion into the gel). It is filed as cell-based, human. The settings on record: renal cell carcinoma patient sample GS-640 in gel matrix; for number of cells that have grown and invaded away from the solid tumor fragment / distance of cell migration away from the solid tumor fragment: 5 days after treatment, photomicrograph; for number of cells that have grown and invaded away from the solid tumor fragment: versus control; for response of tumor sample to the drug: treated for 5 days, 37 degree Celsius, 5% CO2, compared with untreated control (FIG. 5). From the text: FIGS. 1-8 are photographic and photomicrographic images which show, by way of example, use of the means and methods of the present invention with respect to a tissue sample removed from a patient. With respect to FIGS. 1-8, Patient Sample GS-640, comprising kidney tissue, was removed from the patient by a surgeon during surgery.
Tissue analysis and screening in accordance with the invention were requested by the surgeon, and proper consent was obtained from the patient prior to surgical removal of a sample quantity of tissue from the RHS Kidney. The patient was diagnosed with renal cell carcinoma. A tissue sample of approximately 1 gram in quantity was removed from the patient during surgery, and was placed into a 25 ml sample jar, and immersed in sterile saline. The tumor tissue was kept at 4 degrees centigrade until processed for the screening of therapeutic compounds in accordance with the means and methods of the invention. All procedures were performed under sterile conditions in a bio-safety laminar flow hood.
FIG. 1: FIG. 1 is a photographic image showing the mechanical division of the sample into portions to be tested. The sample has been prepared by dissecting away any non viable tissue and blood prior to mincing into 1-2 mm pieces using sterile disposable scalpels.
FIG. 2: FIG. 2 is a photographic image showing tumor sample portions which have been placed into each well of a 48 well plate, and been submersed in a gel matrix mixture according to the invention. After insertion of the portions, the mixture was allowed to form into a gel at room temperature for approximately 30 minutes. Once the gel formed around the fully immersed tumor fragments, nutrient rich media was added as a liquid overlay that permeated the entire gel and tumor fragment.
Each different chemotherapy and or dose of chemotherapy was added to a set of 6 wells out of the 48-well plate. A total of 7 different chemotherapies were assessed in this plate. One set of six wells were not treated with drug and thus acted as ‘control conditions’ for tumor fragment growth and invasion. Each of the eight vertical lanes containing six separate wells was marked with a symbol for each chemotherapy/dose used and noted correspondingly on data collection sheets. […] The plates were then placed in a conventional 37 degree Celsius incubator at 5% CO2.
This image is thus representative of all wells at Day 0 with or without chemotherapeutics. Images were made with a 400× magnification phase contrast micrograph using ZEISS camera specs.
Noteworthy is the halo of cells and increased cell density as compared with the results shown at Day 3 of the test. The lines on the images have been drawn to show the distance measurements within which approximately 95% of the migrating cells have migrated away from the margins of the tissue sample.

Regarding `N.N.[Cl][Pt][Cl]` [Cisplatin], the “number of cells that have grown and invaded away from the solid tumor fragment” value (shortened to “number”) is “identical in appearance and cell numbers to the control sample”; the “response of tumor sample to the drug” value is on record as “failed chemotherapy”.

With `CC(=O)O[C@@]12CO[C@@H]1C[C@H](O)[C@@]1(C)C(=O)[C@H](O)C3=C(C)[C@@H](OC(=O)[C@H](O)[C@@H](NC(=O)OC(C)(C)C)c4ccccc4)C[C@@](O)([C@@H](OC(=O)c4ccccc4)[C@H]21)C3(C)C` [Docetaxol, Docetaxel], the “distance of cell migration away from the solid tumor fragment” value is reported as “longer migratory distance than treatment with Taxol”; the “number” value is recorded as “fewer number of invading cells than the control”; the “response of tumor sample to the drug” value is on record as “moderate response”.

Consider `CC(=O)O[C@H]1C(=O)[C@@]2(C)[C@H]([C@H](OC(=O)c3ccccc3)[C@]3(O)C[C@H](OC(=O)[C@H](O)[C@@H](NC(=O)c4ccccc4)c4ccccc4)C(C)=C1C3(C)C)[C@]1(OC(C)=O)CO[C@@H]1C[C@@H]2O` [Taxol, Paclitaxel], for which the “distance of cell migration away from the solid tumor fragment” value was “drop”; the “number” value is given as “drop”.
